Assay [1] concerns the target T1, Phosphoenolpyruvate carboxykinase, cytosolic [GTP] (Homo sapiens, UniProt P35558).
T1 sequence (P35558 whole entry): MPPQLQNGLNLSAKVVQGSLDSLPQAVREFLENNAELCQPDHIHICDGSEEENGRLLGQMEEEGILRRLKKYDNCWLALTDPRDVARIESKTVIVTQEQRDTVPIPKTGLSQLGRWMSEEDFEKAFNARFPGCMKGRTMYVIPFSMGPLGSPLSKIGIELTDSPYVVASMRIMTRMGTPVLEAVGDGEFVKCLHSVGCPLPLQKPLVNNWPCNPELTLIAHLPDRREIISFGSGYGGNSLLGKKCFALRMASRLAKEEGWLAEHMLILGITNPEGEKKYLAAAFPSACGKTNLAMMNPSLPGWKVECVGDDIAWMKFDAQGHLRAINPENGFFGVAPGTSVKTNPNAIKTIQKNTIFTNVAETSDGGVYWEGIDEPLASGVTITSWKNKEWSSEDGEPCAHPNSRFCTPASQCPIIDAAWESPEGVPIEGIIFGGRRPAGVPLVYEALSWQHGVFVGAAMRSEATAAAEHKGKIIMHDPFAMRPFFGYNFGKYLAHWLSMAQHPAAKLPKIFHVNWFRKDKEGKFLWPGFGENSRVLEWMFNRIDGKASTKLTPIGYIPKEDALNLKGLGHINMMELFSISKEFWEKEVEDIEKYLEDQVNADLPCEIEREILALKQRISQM
As to the kind of experiment: Inhibition of human cPEPCK.

The target in assay [2] is T2, Phosphoenolpyruvate carboxykinase, cytosolic [GTP] (Rattus norvegicus, UniProt P07379).
T2 sequence (P07379 whole entry): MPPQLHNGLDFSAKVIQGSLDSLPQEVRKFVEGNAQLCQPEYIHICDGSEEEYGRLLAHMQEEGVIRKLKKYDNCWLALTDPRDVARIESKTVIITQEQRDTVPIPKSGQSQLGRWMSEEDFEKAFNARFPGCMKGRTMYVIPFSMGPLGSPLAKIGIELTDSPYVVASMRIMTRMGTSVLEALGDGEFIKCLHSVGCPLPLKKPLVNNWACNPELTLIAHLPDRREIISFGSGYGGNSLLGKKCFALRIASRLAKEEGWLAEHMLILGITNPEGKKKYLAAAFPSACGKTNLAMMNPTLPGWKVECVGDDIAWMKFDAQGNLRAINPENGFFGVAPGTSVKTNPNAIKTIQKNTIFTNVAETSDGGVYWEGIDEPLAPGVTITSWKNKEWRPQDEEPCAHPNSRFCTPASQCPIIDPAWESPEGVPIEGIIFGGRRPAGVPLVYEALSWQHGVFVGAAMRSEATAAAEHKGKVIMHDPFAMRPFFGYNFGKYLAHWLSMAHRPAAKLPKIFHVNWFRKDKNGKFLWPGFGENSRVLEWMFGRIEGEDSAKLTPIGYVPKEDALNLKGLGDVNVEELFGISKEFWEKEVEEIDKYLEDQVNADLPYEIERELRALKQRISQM
The assay can be described thus: Inhibition of cPEPCK in rat H4IIE cells assessed as effect on glucose production. Type of assay: cell-based.

The target of assay [3] is T3, Phosphoenolpyruvate carboxykinase, cytosolic [GTP] (Homo sapiens) (UniProt P35558).
T3 sequence (whole entry): T1 sequence (P35558 whole entry)
The assay can be described thus: Inhibition of human cPEPCK at 1 uM.

Consider `CCCCn1c(=O)n(Cc2ccccc2F)c(=O)c2[nH]c(Cc3ccc(NC(C)=O)cc3NC(C)=O)nc21`, for which the concentration for half-maximal inhibition (IC50) in assay [1] is 8700 nM. That is a single-digit micromolar value. On to `CCCCn1c(=O)n(Cc2ccccc2F)c(=O)c2[nH]c(Cc3ccc(NC(C)=O)cc3)nc21`, for which it took 2110 nM to reach half-maximal inhibition in assay [1] (IC50). Besides, the concentration for a half-maximal effect (EC50) in assay [2] was 8600 nM.

Consider `Cc1nn(C)c(Cl)c1S(=O)(=O)Nc1ccc(Cc2nc3c([nH]2)c(=O)n(Cc2ccccc2F)c(=O)n3CC2CC2)cc1`, for which, in assay [2], the EC50 is 2170 nM. For the compound `Cc1noc(C)c1S(=O)(=O)Nc1ccc(Cc2nc3c([nH]2)c(=O)n(Cc2ccccc2F)c(=O)n3CC2CC2)cc1`, in assay [2], the EC50 worked out at 3400 nM.

Turning to `Cc1nc(N)sc1S(=O)(=O)Nc1ccc(Cc2nc3c([nH]2)c(=O)n(Cc2ccccc2F)c(=O)n3CC2CC2)cc1`, the half-maximal effective concentration (EC50) in assay [2] amounted to 8200 nM.

`CN(C)CC(=O)Nc1ccc(Cc2nc3c([nH]2)c(=O)n(Cc2ccccc2F)c(=O)n3CC2CC2)cc1` yielded an IC50 in assay [1] of 2070 nM.

Regarding `Cc1nn(C)cc1S(=O)(=O)Nc1ccc(Cc2nc3c([nH]2)c(=O)n(Cc2ccccc2F)c(=O)n3CC2CC2)cc1`, it took 240 nM to reach half-maximal inhibition in assay [1] (IC50). Also, the EC50 in assay [2] was 5570 nM. Compound `CCCCn1c(=O)n(Cc2ccccc2F)c(=O)c2[nH]c(Cc3ccc(NS(=O)(=O)c4cccs4)cc3)nc21` yielded an inhibition in assay [3] of 30%. With `CCCCn1c(=O)n(Cc2ccccc2F)c(=O)c2[nH]c(Cc3ccc(NS(=O)(=O)c4c(C)nn(C)c4Cl)cc3)nc21`, in assay [1], the IC50 stood at 540 nM. Also, the EC50 in assay [2] was determined as 3970 nM.

Regarding `Cn1cc(S(=O)(=O)Nc2ccc(Cc3nc4c([nH]3)c(=O)n(Cc3ccccc3F)c(=O)n4CC3CC3)cc2)cn1`, in assay [2], the EC50 worked out at 8750 nM. In assay [1], `CCCCn1c(=O)n(Cc2ccccc2F)c(=O)c2[nH]c(Cc3ccc(N)cc3N)nc21` gave an IC50 of 5650 nM. As to `CCCCn1c(=O)n(Cc2ccccc2F)c(=O)c2[nH]c(Cc3ccc(NS(=O)(=O)c4ccsc4C(=O)OC)cc3)nc21`, the inhibition in assay [3] came to 19%. In turn, `Nc1ccc(Cc2nc3c([nH]2)c(=O)n(Cc2ccccc2F)c(=O)n3CC2CC2)cc1` registered an IC50 in assay [1] of 1560 nM. On to `CCCCn1c(=O)n(Cc2ccccc2F)c(=O)c2[nH]c(Cc3ccc(N)cc3)nc21`, for which the midpoint of inhibition in assay [1], the IC50, lay at 2560 nM. Against the preceding compound, the IC50 is about 1.6-fold higher. The compound `CC(=O)Nc1ccc(Cc2nc3c([nH]2)c(=O)n(Cc2ccccc2F)c(=O)n3CC2CC2)cc1` displayed an IC50 in assay [1] of 690 nM. The EC50 in assay [2] is 4700 nM. In the case of `O=c1c2[nH]c(Cc3ccc(NS(=O)(=O)c4cccnc4)cc3)nc2n(CC2CC2)c(=O)n1Cc1ccccc1F`, the EC50 in assay [2] turned out to be 5500 nM.

Compound `CCCCn1c(=O)n(Cc2ccccc2F)c(=O)c2[nH]c(Cc3ccc(NS(=O)(=O)c4ccccc4)cc3)nc21` had an inhibition in assay [3] of 22%. In the case of `O=C(Nc1ccc(Cc2nc3c([nH]2)c(=O)n(Cc2ccccc2F)c(=O)n3CC2CC2)cc1)C(F)(F)F`, the IC50 in assay [1] worked out at 1800 nM.

Compound `CCCCn1c(=O)n(Cc2ccccc2F)c(=O)c2[nH]c(Cc3ccc(NS(=O)(=O)Cc4ccccc4)cc3)nc21` came in with an inhibition in assay [3] of 31%. Compound `CCCCn1c(=O)n(Cc2ccccc2F)c(=O)c2[nH]c(Cc3ccc(NC(=O)C(F)(F)F)cc3)nc21` registered an IC50 in assay [1] of 2300 nM.

As a reminder, the IC50 is the point on the concentration scale where inhibition reaches its midpoint. High values mean a need for much substance, low ones inhibition by little substance. Usually EC50 stands for the concentration needed to bring the measured effect to its halfway point. By inhibition is commonly meant how much of the control response was suppressed. A lower inhibition goes with a response near the control.

The values are drawn from ChEMBL document CHEMBL1145376, “C-8 Modifications of 3-alkyl-1,8-dibenzylxanthines as inhibitors of human cytosolic phosphoenolpyruvate carboxykinase” (Bioorg Med Chem Lett, 2007).
